Counter-ions that a name gives are not always drawn.
Biological target: T1, rh beta tryptase (Homo sapiens, UniProt P20231)
T1 construct: purchased Promega
Assay: Tryptase inhibition test (cleavage of N-p-tosyl-Gly-Pro-Lys-para-nitroaniline, p-nitroaniline measured at 405 nm)
Type: biochemical
Conditions: pH 7.4, 37° C.; for IC50: concentration at which 50% of the tryptase enzyme activity is inhibited, substrate 0.6 mM; for inhibition at 10 µM / % Inhibition (10 μM): inhibition of rh beta tryptase at 10 μM test substance, substrate N-p-tosyl-Gly-Pro-Lys-para-nitroaniline 0.6 mM, 5 minutes
Method: The compounds according to the invention are characterised by their tryptase-inhibiting activity. This ability to inhibit tryptase was investigated using the test described below.
The measurement is carried out in Tris HCl buffer (100 mM), which additionally contains calcium (5 mM) and heparin ([…]), at pH 7.4. The standard used is rh beta tryptase which may be obtained commercially from Promega, for example. The substrate used is N-p-tosyl-Gly-Pro-Lys-para-nitroaniline in a concentration of 0.6 mM. The substrate is digested with tryptase to form p-nitroaniline which can be measured at 405 nm. Usually, an incubation period of 5 minutes and an incubation temperature of 37° C. are chosen. The enzyme activity used is 0.91 U/ml. The measurements are carried out in an Autoanalyser (Cobas Bio) made by Hofmann LaRoche. The potential inhibitory substances are used in concentrations of 10 μM in the screening, the inhibition of the tryptase being given in percent. The IC50 is determined at over 70% inhibition (concentration at which 50% of the enzyme activity is inhibited). After 5 minutes' pre-incubation of the potential inhibitory substances, the substrate is added to start the reaction, the formation of p-nitroaniline being taken as a measurement of the enzyme activity after 5 minutes, after testing the linearity.
The data obtained after the above test has been carried out (% inhibition) are assembled in Table 25 for the compounds according to the invention. The IC50 values obtained for the compounds according to the invention can be found in Table 26.
Table 26 contains the IC50 binding values obtained for the compounds according to the invention. These were measured as described above.

T1 sequence (P20231 31-275): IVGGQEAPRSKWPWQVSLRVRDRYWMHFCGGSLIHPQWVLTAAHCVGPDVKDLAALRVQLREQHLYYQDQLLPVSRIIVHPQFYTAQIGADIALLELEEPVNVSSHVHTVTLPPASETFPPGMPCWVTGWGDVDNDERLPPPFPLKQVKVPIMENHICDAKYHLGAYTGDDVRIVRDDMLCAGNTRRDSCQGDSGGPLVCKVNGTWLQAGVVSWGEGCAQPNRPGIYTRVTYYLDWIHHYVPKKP

Row | Molecule | IC50 | inhibition at 10 µM | % Inhibition (10 μM)
1 | CCCCN(Cc1ccc(CN)cc1)C(=O)c1ccc2c(c1)nc(CCc1ccc(C(=N)N)cc1)n2CCCNC(=O)Cc1ccccc1 [Example 88] | – | – | 70%
2 | CCCCN(Cc1ccc(CN)cc1)C(=O)c1ccc2c(c1)nc(CCc1ccc(C(=N)N)cc1)n2CC1CC1 [Example 90, 2-[2-(4-amidinophenyl)ethyl]-1-cyclopropylmethyl-benzimidazol-5-yl-carboxylic acid-N-[4-(amino-methyl)-benzyl]-N-n-butyl-amide] | – | 67% | –
3 | 2-[2-(4-amidinophenyl)ethyl]-1-(2 thiophenyl-methyl)-benzimidazol-5-yl-carboxylic acid-N-[4-(amino-methyl)-benzyl]-N-(3-pyridyl)-amide [Example 147] | – | – | 51%
4 | COc1cccc(CN(Cc2ccc(CN)cc2)C(=O)c2ccc3c(c2)nc(CCc2ccc(C(=N)N)cc2)n3CCc2ccccc2)c1 [Example 75, 2-[2-(4-amidinophenyl)ethyl]-1-(2-phenyl-ethyl)-benzimidazol-5-yl-carboxylic acid-N-[4-(amino-methyl)-benzyl]-N-(3-methoxybenzyl)-amide] | – | 60% | –
5 | 2-[2-(4-amidinophenyl)ethyl]-1-(2-phenylethyl)-benzimidazol-5-yl-carboxylic acid-N-[4-(amino-methyl)-benzyl]-N-(2-pyridyl)-amide [Example 123] | – | – | 60%
6 | 2-[2-(4-amidinophenyl)ethyl]-1-(2-cyclohexylethyl)-benzimidazol-5-yl-carboxylic acid-N-[4-(amino-methyl)-benzyl]-N-(2-pyridyl)-amide [Example 121] | – | – | 52%
7 | 2-[2-(4-amidinophenyl)ethyl]-1-(tetrahydrofuran-2-yl-methyl)-benzimidazol-5-yl-carboxylic acid-N-[4-(amino-methyl)-benzyl]-N-(2-pyridyl)-amide [Example 130] | – | – | 77%
8 | N=C(N)c1ccc(CCc2nc3cc(C(=O)N(Cc4ccc(Cl)cc4)Cc4ccc(CN)cc4)ccc3n2CCCN2CCOCC2)cc1 [Example 193, 2-[2-(4-amidinophenyl)ethyl]-1-[3-(morpholin-4-yl)-propyl]-benzimidazol-5-yl-carboxylic acid-N-[4-(amino-methyl)-benzyl]-N-(4-chlorbenzyl)-amide] | – | – | 59%
9 | CC(C)CN(CCC(=N)N)C(=O)c1ccc2c(c1)nc(CCc1ccc(C(=N)N)cc1)n2C [Example 11, 2-[2-(4-Amidinophenyl)-ethyl]-1-methyl-benzimidazol-5-yl-carboxylic Acid-N-(2-amidinoethyl)-N-iso-butyl-amide-dihydrochloride] | 86 nM | – | –
10 | 2-[2-(4-amidinophenyl)ethyl]-1-[3-(morpholin-4-yl)-propyl]-benzimidazol-5-yl-carboxylic acid-N-[4-(amino-methyl)-benzyl]-N-(2-pyridyl)-amide [Example 129] | – | – | 63%
11 | CN(C)CCN(C)C(=O)c1ccc2c(c1)nc(CCc1ccc(C(=N)N)cc1)n2C [Example 3, 2-[2-(4-Amidinophenyl)-ethyl]1l-methyl-benzimidazol-5-yl-carboxylic Acid-N-[2-(N,N-dimethylamino)-ethyl]-N-methyl-amide-dihydrochlonide] | 660 nM | – | –
12 | N=C(N)c1ccc(CCc2nc3cc(C(=O)N(Cc4ccc(Cl)cc4)Cc4ccc(CN)cc4)ccc3n2CC2CC2)cc1 [Example 186, 2-[2-(4-amidinophenyl)ethyl]-1-cyclopropylmethyl-benzimidazol-5-yl-carboxylic acid-N-[4-(amino-methyl)-benzyl]-N-(4-chlorbenzyl)-amide] | – | – | 60%
13 | CCCCN(Cc1ccc(CN)cc1)C(=O)c1ccc2c(c1)nc(CCc1ccc(C(=N)N)cc1)n2Cc1ccc2c(c1)OCO2 [Example 100, 2-[2-(4-amidinophenyl)ethyl]-1-(1,3-benzodioxol-5-yl-methyl)-benzimidazol-5-yl-carboxylic acid-N-[4-(amino-methyl)-benzyl]-N-n-butyl-amide] | – | 67% | –
14 | 2-[2-(4-amidinophenyl)ethyl]-1-(3-di-n-butylaminopropyl)-benzimidazol-5-yl-carboxylic acid-N-[4-(amino-methyl)-benzyl]-N-(3-pyridyl)-amide [Example 135] | – | – | 64%
15 | Cn1c(CCc2ccc(CN)cc2)nc2cc(C(=O)N(CCCc3ccccc3)Cc3ccc(CN)cc3)ccc21 [Example 42, 2-[2-(4-aminomethyl-phenyl)-ethyl]-1-methyl-benzimidazol-5-yl-carboxylic Acid-N-(4-aminomethyl-benzyl)-N-(3-phenylpropyl)-amide-dihydrochloride] | 836 nM | – | –

More lines, now with the values ahead:

Row | IC50 | inhibition at 10 µM | % Inhibition (10 μM) | Molecule
16 | 458 nM | 63% | – | CCOCCCn1c(CCc2ccc(C(=N)N)cc2)nc2cc(C(=O)N(Cc3ccc(CN)cc3)Cc3cccc(C(F)(F)F)c3)ccc21 [Example 198, 2-[2-(4-amidinophenyl)ethyl]-1-(3-ethoxypropyl)-benzimidazol-5-yl-carboxylic acid-N-[4-(amino-methyl)-benzyl]-N-(3-trifluoromethylbenzyl)-amide]
17 | – | 59% | – | CCCCN(CCN)C(=O)c1ccc2c(c1)nc(CCc1ccc(C(=N)N)cc1)n2CCc1ccccc1 [Example 283, 2-[2-(4-amidinophenyl)ethyl)-1-(2-phenylethyl)-benzimidazol-5-yl-carboxylic acid-N-(2-aminoethyl)-N-n-butyl-amide]
18 | 626 nM | – | – | N=C(N)c1ccc(CCc2nc3cc(C(=O)N(CCN)Cc4ccccc4F)ccc3n2CC2CC2)cc1 [Example 410, 2-[2-(4-amidinophenyl)ethyl]-1-cyclopropylmethyl-benzimidazol-5-yl-carboxylic acid-N-(2-aminoethyl)-N-(2-fluorobenzyl)-amide]
19 | 253 nM | – | 70% | CCOCCCn1c(CCc2ccc(C(=N)N)cc2)nc2cc(C(=O)N(CCN)c3ccccn3)ccc21 [Example 310, 2-[2-(4-amidinophenyl)ethyl]-1-(3-ethoxypropyl)-benzimidazol-5-yl-carboxylic acid-N-(2-aminoethyl)-N (2-pyridyl)-amide]
20 | – | – | 62% | CCOCCCn1c(CCc2ccc(C(=N)N)cc2)nc2cc(C(=O)N(CCN)Cc3ccc(Cl)cc3)ccc21 [Example 374, 2-[2-(4-amidinophenyl)ethyl]-1-(3-ethoxypropyi)-benzimidazol-5-yl-carboxylic acid-N-(2-aminoethyl)-N-(4-chlorbenzyl)-amide]
21 | 251 nM | 83% | – | CCCCN(CCN)C(=O)c1ccc2c(c1)nc(CCc1ccc(C(=N)N)cc1)n2CCCOCC [Example 278, 2-[2-(4-amidinophenyl)ethyl]-1-(3-ethoxypropyl)-benzimidazol-5-yl-carboxylic acid-N-(2-aminoethyl)-N n-butyl-amide]
22 | 822 nM | 58% | – | N=C(N)c1ccc(CCc2nc3cc(C(=O)N(Cc4ccc(CN)cc4)Cc4cccc(C(F)(F)F)c4)ccc3n2CC2CC2)cc1 [Example 202, 2-[2-(4-amidinophenyl)ethyl]-1-cyclopropylmethyl-benzimidazol-5-yl-carboxylic acid-N-[4-(amino-methyl)-benzyl]-N-(3-trifluoromethylbenzyl)-amide]
23 | – | – | 52% | N=C(N)c1ccc(CCc2nc3cc(C(=O)N(CCN)Cc4ccc(Cl)cc4)ccc3n2CC2CC2)cc1 [Example 378, 2-[2-(4-amidinophenyl)ethyl]-1-cyclopropylmethyl-benzimidazol-5-yl-carboxylic acid-N-(2-aminoethyl)-N-(4-chlorbenzyl)-amide]
24 | – | 63% | – | N=C(N)c1ccc(CCc2nc3cc(C(=O)N(Cc4ccc(CN)cc4)Cc4ccc5ccccc5c4)ccc3n2CC2CCCO2)cc1 (stereo not shown) [Example 242, 2-[2-(4-amidinophenyl)ethyl]-1-(tetrahydrofuran-2-yl-methyl)-benzimidazol-5-yl-carboxylic acid-N-[4-(amino-methyl)-benzyl]-N-(2-naphthylmethyl)-amide]
25 | – | 51% | – | Cc1ccccc1N1CCN(CCCn2c(CCc3ccc(C(=N)N)cc3)nc3cc(C(=O)N(CCN)Cc4ccccc4)ccc32)CC1 [Example 304, 2-[2-(4-amidinophenyl)ethyl]-1-{3-[4-(2-methylphenyl)-piperazin-1-yl]-propyl}-benzimidazol-5-yl-carboxylic acid-N-(2-aminoethyl)-N-benzyl-amide]
26 | – | 61% | – | N=C(N)c1ccc(CCc2nc3cc(C(=O)N(Cc4ccc(CN)cc4)Cc4cccc(C(F)(F)F)c4)ccc3n2CCCN2CCOCC2)cc1 [Example 209, 2-[2-(4-amidinophenyl)ethyl]-1-[3-(morpholin-4-yl)-propyl]-benzimidazol-5-yl-carboxylic acid-N-[4-(amino-methyl)-benzyl]-N-(3-trifluoromethylbenzyl)-amide]
27 | – | 55% | – | N=C(N)c1ccc(CCc2nc3cc(C(=O)N(CCN)CCCc4ccccc4)ccc3n2Cc2cccs2)cc1 [Example 371, 2-[2-(4-amidinophenyl)ethyl]-1-(2-thiophenyl-methyl)-benzimidazol-5-yl-carboxylic acid-N-(2-aminoethyl)-N-(3-phenylpropyl)-amide]
